In test [1] the test system is Bovine heart PDE. Nature of the test: Bovine heart PDE inhibition activity. The class given is biochemical. Particulars: substrate [³H]-cyclic AMP, 37°C for 30 minutes; compound concentration not given. As for the experimental part:
[Bovine heart PDE inhibition activity]
Placed in a test tube were 50 µℓ of 0.5 M tris-HCl buffer (pH 7.5), 50 µℓ of 50 mM magnesium chloride, 50 µℓ of an enzyme solution (bovine heart, product of Boheringer Mannheim Yamanouchi Co., Ltd.), and a dimethylsulfoxide (DMSO) solution of the compound obtained in each example. Purified water was then added to a total volume of 450 µℓ, followed by incubation at 37°C for 3 minutes. Then, 50 µℓ or [³H]-cyclic AMP (0.01 mM, 1.0 x 1.0⁻⁶ dpm) as a substrate were added to initiate a reaction. After incubated at 37°C for 30 minutes, the test tube was heated for 3 minutes in a boiling water bath to terminate the reaction. After cooling, snake venem (500 µg) was added, followed by incubation at 37°C for 30 minutes. An ion-exchange resin ("Dowex-AG1-X8", trade name) was then added, followed by stirring and centrifugation. A supernatant was sampled and its radioactivity was measured by a liquid scintillation counter. Percent inhibition was determined in accordance with the following formula: [formula] where, C: Radioactivity when the compound in the example was not contained. S: Radioactivity when the compound in the example was added.

The subject of test [2] is Platelet phosphodiesterase (PDE). Kind of test: Platelet phosphodiesterase (PDE) inhibition activity in washed platelets. The class given is biochemical, rabbit. The following applies: 500 µM as the final concentration of the compound; washed platelet mixture; substrate [³H]-cyclic AMP, 37°C for 30 minutes. From the text: [Preparation of washed platelets]
A rabbit was held on its back on a fixing table and, under non-anesthesia, the leg femoral artery was cannulated. Next, 2 mℓ of a 3.8% aqueous solution of sodium citrate were placed in a 20-mℓ plastic syringe and 18 mℓ of the arterial blood were collected. The syringe was caused to fall down 2-3 times so that its contents were mixed. The above procedures were repeated using 3-4 syringes. The blood so collected was transferred into a plastic-made test tube and centrifuged at 800 rpm for 10 minutes at room temperature to settle blood cells, whereby an upper layer (PRP) was obtained. The PRP was next centrifuged at 3000 rpm for 10 minutes so that platelets were collected. After 12.3 mM tris-HCl buffer (pH 7.4) containing 0.137 M of NaCl, 1.54 mM of EDTA and 20 mM of glucose was added to the platelets and pipetting was conducted thoroughly, centrifugation was conducted at 3000 rpm for 10 minutes. The above procedures were repeated twice. Precipitated platelets were re-suspended in the above tris-HCl buffer at a platelet concentration of 6.5 x 10⁻⁶ platelets/µℓ. They were used as washed platelets in the subsequent experiments.
[Platelet phosphodiesterase (PDE) inhibition activity]
Placed in a test tube were 50 µℓ of 0.5 M tris-HCl buffer (pH 7.5), 50 µℓ of 50 mM magnesium chloride, 200 µℓ of the washed platelet mixture, and a dimethylsulfoxide (DMSO) solution of the compound (500 µM as the final concentration of the compound) obtained in each example. Purified water was added to a total volume of 450 µℓ, followed by incubation at 37°C for 3 minutes. Then, 50 µℓ off [³H]-cyclic AMP (0.01 mM, 1.0 x 1.0⁻⁶ dpm) as a substrate were added to initiate a reaction. […] A supernatant was sampled and its radioactivity was measured by a liquid scintillation counter. Percent inhibition was determined in accordance with the following formula: [formula] where, C: Radioactivity when the compound in the example was not contained. S: Radioactivity when the compound in the example was added.

The structures appear in SMILES notation.

As for `COc1cc2c(c(OC)c1OC)-c1c(cc(OC)c(OC)c1OC)C[C@@H]1COC(=O)C1=C2` (single isomer, unassigned) [Test Compound 8], the “Inhibition rate (%) Bovine heart PDE” value in test [1] was determined as 36.3%.
`COc1cc2c(c(OC)c1OC)-c1c(cc3c(c1OC)OCO3)C[C@@H]1COC(=O)C1=C2` (single isomer, unassigned) [Test Compound 2]: the “Inhibition rate (%) Bovine heart PDE” value in test [1] was found to be 0.0%. For the same molecule, the “Inhibition rate (%) Platelet PDE” value in test [2] was found to be 25.3%.
The matching figures for `COc1cc2c(c(OC)c1OC)-c1c(cc3c(c1OC)OCO3)C[C@@H]1COC(=O)C1=C2` (single isomer, unassigned) [Test Compound 4, (3as,Sbiar)-3a,4-Dihydro-8,9,10,11-tetramethoxy-6,7-methylenedioxydibenzo[4,5:6,7]cycloocta-[1,2-c]furan-1(3H)-one]: 0.0% and 23.1%.
With `COc1cc2c(c(OC)c1OC)-c1c(cc(OC)c(OC)c1OC)C[C@@H]1COC(=O)C1=C2` (single isomer, unassigned) [Test Compound 7], the “Inhibition rate (%) Bovine heart PDE” value in test [1] is listed as 50.9%.
Still for that read-out and setting: the value for `COc1cc2c(c(OC)c1OC)-c1c(cc(O)c(O)c1OC)CC1COC(=O)C1=C2` (stereo not drawn) [Test Compound 6, (3aRS,SRbiar)-3a,4-Dihydro-6,7-dihydroxy-8,9,10,11-tetramethoxydibenzo[4,5:6,7]cycloocta[1,2-c]-furan-1(3H)-one] was 90.5%; that for `COc1cc2c(c(OC)c1OC)-c1c(cc(OC)c3c1OCO3)C[C@@H]1COC(=O)C1=C2` [Test Compound 3, (3aS,Rbiar)-3a,4-Dihydro-6,9,10,11-tetramethoxy-7,8-methylenedioxydibenzo[4,5:6,7)cycloocta[1,2-c]furan-1(3H)-one] was 19.5%.
Turning to `COc1cc2c(c(OC)c1OC)-c1c(cc(OC)c3c1OCO3)C[C@H]1COC(=O)C1=C2` [Test Compound 5, (3aR,Sbiar)-3a,4-Dihydro-6,9,10,11-tetramethoxy-7,8-methylenedioxybenzo[4,5:6,7]cycloocta[1,2-c]furan-1(3H)-one], the “Inhibition rate (%) Bovine heart PDE” value in test [1] amounted to 2.8%. The “Inhibition rate (%) Platelet PDE” value in test [2] stood at 44.0%.
As to `COc1cc2c(c(OC)c1OC)-c1c(cc(O)c(O)c1OC)C[C@@H]1COC(=O)C1=C2` [Test Compound 1, (3aS,Rbiar)-3a,4-Dihydro-6,7-dihydroxy-8,9,10,11-tetramethoxydibenzo[4,5:6,7)cycloocta[1,2-c]furan-1(3H)-one], the “Inhibition rate (%) Bovine heart PDE” value in test [1] was found to be 85.0%.

The values above are taken from patent EP0594890A1, “Polycyclic compounds, their preparation and their use as phosphodiesterases inhibitors” (TSUMURA & CO., priority 1992, dated 1994).
